Experimental data as given in US12686687B2, “Compounds and uses thereof” (Foghorn Therapeutics Inc., priority 2019, dated 2026).

The molecules below were run against T1, Nanoluciferase-BRD9 fusion protein (3×FLAG-NLuc-BRD9) in SYO-1 cells (Homo sapiens, UniProt Q9H8M2) (assay: SYO1 BRD9 NanoLuc degradation assay). Settings: Table 6B; SYO-1 cells expressing 3×FLAG-NLuc-BRD9, 6 hours incubation, 1 μM top dose; read-out: SYO1 BRD9-NanoLuc degradation IC50.
T1 construct: expressed in transfected cells; host or cells: SYO-1
T1 sequence (Q9H8M2 1-597): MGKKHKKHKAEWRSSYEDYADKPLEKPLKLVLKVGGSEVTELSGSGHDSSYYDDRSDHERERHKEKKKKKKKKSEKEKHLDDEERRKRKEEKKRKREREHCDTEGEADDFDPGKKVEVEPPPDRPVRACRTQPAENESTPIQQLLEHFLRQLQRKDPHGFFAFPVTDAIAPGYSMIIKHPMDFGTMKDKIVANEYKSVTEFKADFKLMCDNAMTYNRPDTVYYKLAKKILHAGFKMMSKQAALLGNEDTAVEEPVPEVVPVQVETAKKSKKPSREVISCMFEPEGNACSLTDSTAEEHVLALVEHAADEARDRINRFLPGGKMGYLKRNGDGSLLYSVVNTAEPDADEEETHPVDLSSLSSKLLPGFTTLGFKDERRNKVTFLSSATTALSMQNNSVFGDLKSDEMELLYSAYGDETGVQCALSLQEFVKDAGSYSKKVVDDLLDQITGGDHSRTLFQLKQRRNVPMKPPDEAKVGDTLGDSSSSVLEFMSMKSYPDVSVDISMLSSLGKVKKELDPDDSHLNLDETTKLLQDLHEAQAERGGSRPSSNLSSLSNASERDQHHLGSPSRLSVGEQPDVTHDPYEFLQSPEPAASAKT
Format: cell-based
How it was run: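 Stable SYO-1 line expressing 3×FLAG-NLuc-BRD9 was seeded at 8000 cells/well, then treated next day for 6 h with 10-point 3-fold dilutions (top 1 μM final). Nano-Glo luminescence was read. % inhibition was normalised to DMSO (high control) and 1 μM reference BRD9 degrader (low control).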

DC50 | SMILES
< 10 nM | COc1cc(-c2cn(C)c(=O)c3cc(C(=O)NCC4CC5CN(CCN6CCN(c7ccc8c(c7)C(=O)N(C7CCC(=O)NC7=O)C8=O)CC6)CC5C4)sc23)cc(OC)c1CN(C)C (stereo not drawn) [Compound D43]
< 10 nM | COc1cc(-c2cn(C)c(=O)c3cc(C(=O)NC4CCC5CN(CCN6CCN(c7ccc8c(c7)C(=O)N(C7CCC(=O)NC7=O)C8=O)CC6)CC54)sc23)cc(OC)c1CN(C)C (stereo not drawn) [Compound D38]
> 10 nM | COc1cc(-c2cn(C)c(=O)c3cc(C(=O)NCC4CC45CCN(C(=O)CCN4CCN(c6ccc7c(c6)C(=O)N(C6CCC(=O)NC6=O)C7=O)CC4)CC5)sc23)cc(OC)c1CN(C)C (stereo not drawn) [Compound D67]
> 10 nM | COc1cc(-c2cn(C)c(=O)c3cc(NC(=O)C4CCN(CCCCCOc5cccc6c5C(=O)N(C5CCC(=O)NC5=O)C6=O)CC4(F)F)sc23)cc(OC)c1CN(C)C (stereo not drawn) [Compound D59]
> 100 nM | COc1cc(-c2cn(C)c(=O)c3cc(C(=O)NC4CC5CC4CN5CCCCCOc4cccc5c4C(=O)N(C4CCC(=O)NC4=O)C5=O)sc23)cc(OC)c1CN(C)C (stereo not drawn) [Compound D82]
> 1000 nM | COc1cc(-c2cn(C)c(=O)c3cc(C(=O)NC4CCN(C(=O)CN5CCC6(C5)CN(c5ccc7c(c5)C(=O)N(C5CCC(=O)NC5=O)C7=O)C6)CC4(F)F)sc23)cc(OC)c1CN(C)C (stereo not drawn) [Compound D45]
< 10 nM | COc1cc(-c2cn(C)c(=O)c3cc(C(=O)NC4CCN(CCCN5CCN(c6ccc7c(c6)C(=O)N(C6CCC(=O)NC6=O)C7=O)CC5)CC4(F)F)sc23)cc(OC)c1CN(C)C (stereo not drawn) [Compound D60]
< 10 nM | COc1cc(-c2cn(C)c(=O)c3cc(C(=O)NC4CCN(C(=O)CCN5CCN(c6ccc7c(c6)C(=O)N(C6CCC(=O)NC6=O)C7=O)CC5)CC4)sc23)cc(OC)c1CN(C)C (stereo not drawn) [Compound D78]
< 10 nM | COc1cc(-c2cn(C)c(=O)c3cc(C(=O)NC4CC5(C4)CN(C(=O)CCN4CCN(c6ccc7c(c6)C(=O)N(C6CCC(=O)NC6=O)C7=O)CC4)C5)sc23)cc(OC)c1CN(C)C (stereo not drawn) [Compound D74]
< 10 nM | COc1cc(-c2cn(C)c(=O)c3cc(C(=O)NCC4CC5(CCN(C(=O)CCN6CCN(c7ccc8c(c7)C(=O)N(C7CCC(=O)NC7=O)C8=O)CC6)CC5)C4)sc23)cc(OC)c1CN(C)C (stereo not drawn) [Compound D35]
< 10 nM | COc1cc(-c2cn(C)c(=O)c3cc(C(=O)NC4CC5(C4)CN(CCCN4CCN(c6ccc7c(c6)C(=O)N(C6CCC(=O)NC6=O)C7=O)CC4)C5)sc23)cc(OC)c1CN(C)C (stereo not drawn) [Compound D75]
< 10 nM | COc1cc(-c2cn(C)c(=O)c3cc(C(=O)NC4CCN(C(=O)CN5CCC6(CC5)CN(c5ccc7c(c5)CN(C5CCC(=O)NC5=O)C7=O)C6)CC4(F)F)sc23)cc(OC)c1CN(C)C (stereo not drawn) [Compound D18]

Same assay, conditions: Table 6C; SYO-1 cells expressing 3×FLAG-NLuc-BRD9, 6 hours incubation, 1 μM top dose; read-out: SYO1 BRD9-NanoLuc degradation IC50

DC50 | SMILES
< 10 nM | Cn1cc(-c2cccc(C(F)(F)F)c2)c2sc(C(=O)NC3CC4(CCN(c5ccc6c(c5)C(=O)N(C5CCC(=O)NC5=O)C6)CC4)C3)cc2c1=O (stereo not drawn) [Compound D117]
< 10 nM | COc1cc(-c2cn(C)c(=O)c3cc(C(=O)NC4CCN(C)CC4(F)F)sc23)cc(OC)c1CN1CC(CN2CCC3(CC2)CN(c2ccc4c(c2)CN(C2CCC(=O)NC2=O)C4=O)C3)C1 (stereo not drawn) [Compound D104]
< 10 nM | COc1cc(-c2cn(C)c(=O)c3cc(C(=O)N[C@@H]4CCN(c5ccc6c(c5)CN(C5CCC(=O)NC5=O)C6=O)CC4(F)F)sc23)cc(OC)c1CN(C)C (stereo partly drawn) [Compound D155]
> 1000 nM | COc1cc(-c2cn(C)c(=O)c3cc(C(=O)NC4CCN(C5CCN(c6ccc7c(c6)C(=O)N(C6CCC(=O)N(C)C6=O)C7)CC5)CC4(F)F)sc23)cc(OC)c1CN(C)C (stereo not drawn) [Compound D142]
< 10 nM | COc1cc(-c2cn(C)c(=O)c3ccsc23)cc(OC)c1CN1CCC(CN2CCC3(CC2)CN(c2ccc4c(c2)C(=O)N(C2CCC(=O)NC2=O)C4=O)C3)CC1 (stereo not drawn) [Compound D185]
< 10 nM | COc1cc(-c2cn(C)c(=O)c3ccsc23)cc(OC)c1CN1CC(Oc2ccc3c(c2)CN(C2CCC(=O)NC2=O)C3=O)C1 (stereo not drawn) [Compound D170]
> 10 nM | Cn1cc(-c2cccc(C(F)(F)F)c2)c2oc(C(=O)NC3CCN(c4ccc5c(c4)C(=O)N(C4CCC(=O)NC4=O)C5)CC3)cc2c1=O (stereo not drawn) [Compound D211]
< 10 nM | [2H]C([2H])([2H])n1cc(-c2cc(OC)c(CN3CCN(c4ccc5c(c4)C(=O)N(C4CCC(=O)NC4=O)C5)CC3)c(OC)c2)c2sccc2c1=O (stereo not drawn) [Compound D147]
< 10 nM | COc1cc(-c2cn(C)c(=O)c3ccsc23)cc(OC)c1CN1CCC2(CC1)CN(c1ccc3c(c1)C(=O)N(C1CCC(=O)NC1=O)C3)C2 (stereo not drawn) [Compound D186]
< 10 nM | COc1cc(-c2cn(C)c(=O)c3nc(C)sc23)cc(OC)c1CN1CCC2(CC1)CN(c1ccc3c(c1)C(=O)N(C1CCC(=O)NC1=O)C3)C2 (stereo not drawn) [Compound D214]
< 10 nM | COc1cc(-c2cn(C)c(=O)c3sncc23)cc(OC)c1CN1CC(CN2CCC3(CC2)CN(c2ccc4c(c2)C(=O)N(C2CCC(=O)NC2=O)C4)C3)C1 (stereo not drawn) [Compound D201]
< 10 nM | COc1cc(-c2cn(C)c(=O)c3cc(C(=O)N[C@@H]4CCN(c5ccc6c(c5)C(=O)N(C5CCC(=O)NC5=O)C6)CC4(F)F)sc23)cc(OC)c1CN(C)C (stereo partly drawn) [Compound D156]
< 10 nM | COc1cc(-c2cn(C)c(=O)c3cc(C(=O)NC4CN(c5ccc6c(c5)C(=O)N(C5CCC(=O)NC5=O)C6=O)CC4(F)F)sc23)cc(OC)c1CN(C)C (stereo not drawn) [Compound D190]
< 10 nM | COc1cc(-c2cn(C)c(=O)c3cc(C(=O)NC4CCN(C5CCN(c6ccc7c(c6)CN(C6CCC(=O)NC6=O)C7=O)CC5(F)F)CC4)sc23)cc(OC)c1CN(C)C (stereo not drawn) [Compound D127]
< 10 nM | COc1cc(-c2cn(C)c(=O)c3ccsc23)cc(OC)c1CN1CCC(CN2CCC3(CC2)CN(c2ccc4c(c2)C(=O)N(C2CCC(=O)NC2=O)C4)C3)CC1 (stereo not drawn) [Compound D99]
< 10 nM | COc1cc(-c2cn(C)c(=O)c3sccc23)cc(OC)c1CN1CCC(CN2CCC3(CC2)CC(Oc2ccc4c(c2)CN(C2CCC(=O)NC2=O)C4=O)C3)CC1 (stereo not drawn) [Compound D199]
< 10 nM | COc1cc(-c2cn(C)c(=O)c3cc(C(=O)NC4CCN(C5CCN(c6ccc7c(c6)C(=O)N(C6CCC(=O)NC6=O)C7)CC5)CC4)sc23)cc(OC)c1CN(C)C (stereo not drawn) [Compound D150]
< 10 nM | COc1cc(-c2cn(C)c(=O)c3cnsc23)cc(OC)c1CN1CC(Oc2ccc3c(c2)C(=O)N(C2CCC(=O)NC2=O)C3)C1 (stereo not drawn) [Compound D213]
< 10 nM | Cn1cc(-c2ccc(-c3ccc4c(c3)C(=O)N(C3CCC(=O)NC3=O)C4)c(C(F)(F)F)c2)c2sccc2c1=O (stereo not drawn) [Compound D125]
< 10 nM | COc1cc(-c2cn(C)c(=O)c3cc(C#N)sc23)cc(OC)c1CN1CC(C#Cc2ccc3c(c2)C(=O)N(C2CCC(=O)NC2=O)C3)C1 (stereo not drawn) [Compound D91]
< 10 nM | COc1cc(-c2cn(C)c(=O)c3cc(C)sc23)cc(OC)c1CN1CCC(CN2CCC3(CC2)CN(c2ccc4c(c2)C(=O)N(C2CCC(=O)NC2=O)C4=O)C3)CC1 (stereo not drawn) [Compound D184]
< 10 nM | COc1cc(-c2cn(C)c(=O)c3cnsc23)cc(OC)c1CN1CCC2(CC1)CN(c1ccc3c(c1)C(=O)N(C1CCC(=O)NC1=O)C3=O)C2 (stereo not drawn) [Compound D209]
< 10 nM | COc1cc(-c2cn(C)c(=O)c3ccsc23)cc(OC)c1CN1CCC2CCN(c3ccc4c(c3)C(=O)N(C3CCC(=O)NC3=O)C4)CC2C1 (stereo not drawn) [Compound D113]
< 10 nM | COc1cc(-c2cn(C)c(=O)c3cc(C#N)sc23)cc(OC)c1CN1CCC2(CC1)CN(c1ccc3c(c1)C(=O)N(C1CCC(=O)NC1=O)C3)C2 (stereo not drawn) [Compound D139]
